Measurements published in patent publication US6420558B1, “Aminopiperidine derivates as integrin αvβ3 antagonists” (Meiji Seika Kaisha, Ltd., priority 1998, dated 2002).

How the values were obtained:
[1] = target: T1, integrin αvβ3 (vitronectin receptor purified from the human placenta) (Homo sapiens, UniProt P05106+P06756); assay: αvβ3 binding assay (vitronectin-vitronectin receptor binding assay); conditions: vitronectin binding to human placenta vitronectin receptor; read-out: integrin αvβ3 antagonistic activity, IC50 value
T1 construct: a vitronectin receptor (protein content: 118 μg/ml) purified from the human placenta; from tissue; host or cells: human placenta
T1 sequence (P06756 31-889 limits assumed): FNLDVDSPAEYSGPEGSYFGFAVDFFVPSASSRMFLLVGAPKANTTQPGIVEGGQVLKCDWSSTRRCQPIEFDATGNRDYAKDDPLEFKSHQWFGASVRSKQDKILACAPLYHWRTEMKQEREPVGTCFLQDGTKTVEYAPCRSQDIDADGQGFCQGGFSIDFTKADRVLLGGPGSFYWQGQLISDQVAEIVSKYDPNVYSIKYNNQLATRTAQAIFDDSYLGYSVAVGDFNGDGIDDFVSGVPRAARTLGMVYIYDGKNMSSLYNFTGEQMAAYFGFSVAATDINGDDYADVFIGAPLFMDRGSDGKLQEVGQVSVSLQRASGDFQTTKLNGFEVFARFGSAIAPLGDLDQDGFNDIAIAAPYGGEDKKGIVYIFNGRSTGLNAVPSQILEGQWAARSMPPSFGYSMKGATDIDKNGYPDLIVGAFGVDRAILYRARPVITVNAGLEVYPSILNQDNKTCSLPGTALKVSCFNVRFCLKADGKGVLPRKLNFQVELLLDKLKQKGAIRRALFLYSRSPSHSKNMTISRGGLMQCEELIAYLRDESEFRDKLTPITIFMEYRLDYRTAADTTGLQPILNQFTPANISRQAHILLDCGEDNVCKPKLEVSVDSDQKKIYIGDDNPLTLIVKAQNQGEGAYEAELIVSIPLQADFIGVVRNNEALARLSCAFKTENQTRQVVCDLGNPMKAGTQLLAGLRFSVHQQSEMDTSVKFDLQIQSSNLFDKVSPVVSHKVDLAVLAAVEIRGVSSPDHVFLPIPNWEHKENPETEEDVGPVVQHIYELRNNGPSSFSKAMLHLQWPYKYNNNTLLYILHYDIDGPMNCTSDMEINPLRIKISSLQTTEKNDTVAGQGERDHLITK
T1 sequence (P06756 891-1048 limits assumed): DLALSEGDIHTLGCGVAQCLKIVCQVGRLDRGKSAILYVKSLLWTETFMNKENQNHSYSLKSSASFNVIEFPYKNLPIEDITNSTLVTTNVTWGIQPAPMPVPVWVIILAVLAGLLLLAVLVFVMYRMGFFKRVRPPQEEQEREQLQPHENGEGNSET
T1 sequence (P05106 27-788): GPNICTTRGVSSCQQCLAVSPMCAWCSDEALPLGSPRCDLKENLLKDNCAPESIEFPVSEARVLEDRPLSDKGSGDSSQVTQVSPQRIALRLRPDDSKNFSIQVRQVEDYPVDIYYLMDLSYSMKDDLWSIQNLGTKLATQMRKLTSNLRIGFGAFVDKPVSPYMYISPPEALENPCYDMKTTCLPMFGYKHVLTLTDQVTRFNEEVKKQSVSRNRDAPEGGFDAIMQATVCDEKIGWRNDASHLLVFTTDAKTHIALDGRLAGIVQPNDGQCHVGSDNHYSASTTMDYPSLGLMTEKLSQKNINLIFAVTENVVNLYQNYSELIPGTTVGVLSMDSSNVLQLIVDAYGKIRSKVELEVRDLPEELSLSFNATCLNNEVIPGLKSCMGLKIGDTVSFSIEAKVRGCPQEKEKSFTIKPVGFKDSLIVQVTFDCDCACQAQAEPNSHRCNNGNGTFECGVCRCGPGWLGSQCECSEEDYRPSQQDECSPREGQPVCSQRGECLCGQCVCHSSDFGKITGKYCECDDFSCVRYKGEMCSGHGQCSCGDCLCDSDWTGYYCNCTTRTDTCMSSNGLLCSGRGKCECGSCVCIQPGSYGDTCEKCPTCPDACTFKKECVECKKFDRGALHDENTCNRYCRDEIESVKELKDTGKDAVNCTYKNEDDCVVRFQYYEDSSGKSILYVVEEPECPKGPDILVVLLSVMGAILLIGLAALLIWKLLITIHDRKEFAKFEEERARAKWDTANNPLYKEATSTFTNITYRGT
Protocol: Integrin αvβ3 antagonistic activity was measured for the compounds according to the present invention in a vitronectin-vitronectin receptor binding assay system in accordance with the method of Kouns et al. (W. C. Kouns, D. Kirchhofer, P. Hadvary, A. Edenhofer, T. Weller, G. Pfenninger, H. R. Baumgartner, L. K. Jennings and B. Steiner, Blood, 80, 2539-2547 (1992)).
Specifically, a vitronectin receptor (protein content: 118 μg/ml) purified from the human placenta in accordance with the method of Pytela et al. (R. Pytela, M. D. Pierschbacher, S. Argraves, S. Suzuki, and E. Ruoslahti, Method in Enzymology, 144, 475-489 (1987)) was diluted 50 times with TBS (20 mM Tris-HCl, 150 mM NaCl, 1 mM CaCl2, 1 mM MgCl2, pH 7.4), and distributed and coated on wells (50 μl/well) of a plate (Maxisorp, Nunc, 96 well Immuno Plate). The plate was then allowed to stand at 4° C. for 1 day, washed twice with TBS (200 μl/well), and then subjected to blocking with TBS (150 μl/well) containing 1% bovine serum albumin (SIGMA) at 4° C. overnight. After washing twice with TBS (200 μl/well), 50 μl of vitronectin (CALBIOCHEM) adjusted to 0.2 μg/ml by the addition of TBS (TBS-Tween) containing 0.01% Tween-20 was mixed with 50 μl of each test compound adjusted to each concentration in wells, and a reaction was allowed to proceed at room temperature for 4 hr. After the completion of the reaction, the wells were washed five times with TBS-Tween. A solution prepared by diluting anti-vitronectin rabbit antiserum (CHEMICON) 500 times with TBS-Tween was added as a primary antibody in an amount of 50 μl/well, and a reaction was allowed to proceed at room temperature for 1.5 hr. After washing five times with 200 μl/well of TBS-Tween, a peroxidase (POD)-labeled anti-rabbit IgG antibody solution (CAPPEL) diluted 500 times with TBS-Tween was added as a secondary antibody in an amount of 50 μl/well, and a reaction was allowed to proceed at room temperature for 1.5 hr. After washing five times with TBS-Tween (200 μl/well), ABTS (2,2′-azino-bis(3-ethylbenzthiazoline-6-sulfonic acid), SIGMA) was adjusted to 1 mg/ml by the addition of a ten-fold diluted POD-buffer (ZYMED), and added in an amount of 50 μl/well, and a reaction was allowed to proceed for 5 to 10 min. A 0.1 M citric acid buffer (pH 4.3) containing 0.05% NaN3 was added in an amount of 50 μl/well to stop the reaction, followed by the measurement of the absorbance at 415 nm with a microplate reader (MTP 32, Corona Electric) (reference: 675 nm). The total binding was defined as the absorbance after a reaction using 50 μl of TBS-Tween instead of the test compound, and the non-specific binding (100% inhibition) was defined as the absorbance after a reaction using 50 μl of TBS-Tween containing 2×10^−3 M RGDS. The inhibition was calculated by the following equation: [formula]
IC50 was determined from a primary regression line of the logarithm of each concentration of the test compound and the logarithm of (100−inhibition)/inhibition.

GP IIb/IIIa = GP IIb/IIIa (Homo sapiens, UniProt P05106+P08514); assay: GP IIb/IIIa antagonistic activity (method of Pharmacological Test 2 in WO 94/21599); format: binding
Sequence of GP IIb/IIIa (P08514 32-887 limits assumed): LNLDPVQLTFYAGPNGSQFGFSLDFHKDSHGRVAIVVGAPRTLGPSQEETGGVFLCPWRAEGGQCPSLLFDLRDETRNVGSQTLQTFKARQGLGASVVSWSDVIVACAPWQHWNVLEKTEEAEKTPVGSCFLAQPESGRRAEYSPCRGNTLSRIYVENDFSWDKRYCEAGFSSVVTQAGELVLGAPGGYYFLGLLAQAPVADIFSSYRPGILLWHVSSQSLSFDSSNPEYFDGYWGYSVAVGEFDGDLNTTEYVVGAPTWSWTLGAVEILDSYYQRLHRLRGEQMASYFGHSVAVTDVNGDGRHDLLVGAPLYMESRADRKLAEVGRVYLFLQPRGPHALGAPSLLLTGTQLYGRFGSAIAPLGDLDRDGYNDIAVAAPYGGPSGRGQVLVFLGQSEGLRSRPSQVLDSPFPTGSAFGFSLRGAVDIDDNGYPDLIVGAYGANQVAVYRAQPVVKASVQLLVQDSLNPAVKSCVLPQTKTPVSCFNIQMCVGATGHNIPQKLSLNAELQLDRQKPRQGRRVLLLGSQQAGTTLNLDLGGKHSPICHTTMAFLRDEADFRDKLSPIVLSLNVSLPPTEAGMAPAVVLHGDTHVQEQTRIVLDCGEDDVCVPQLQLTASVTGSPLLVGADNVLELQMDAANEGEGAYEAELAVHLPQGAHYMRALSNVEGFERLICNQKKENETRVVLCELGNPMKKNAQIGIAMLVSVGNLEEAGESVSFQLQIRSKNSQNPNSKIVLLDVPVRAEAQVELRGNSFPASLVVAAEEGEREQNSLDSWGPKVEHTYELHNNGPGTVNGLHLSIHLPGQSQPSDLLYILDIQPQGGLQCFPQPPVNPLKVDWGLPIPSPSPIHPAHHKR
Sequence of GP IIb/IIIa (P08514 891-1039 limits assumed): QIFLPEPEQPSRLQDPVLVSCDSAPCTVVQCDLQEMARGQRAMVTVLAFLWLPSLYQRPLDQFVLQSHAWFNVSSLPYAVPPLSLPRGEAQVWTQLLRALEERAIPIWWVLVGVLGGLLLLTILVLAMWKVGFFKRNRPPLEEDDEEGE
Sequence of GP IIb/IIIa (P05106 27-788): as the sequence (P05106 27-788) above
Protocol: GP IIb/IIIa Antagonistic Activity and Human Platelet Aggregation Inhibitory Activity
GP IIb/IIIa antagonistic activity was measured for the compounds according to the present invention. The measurement of the GP IIb/IIIa antagonistic activity was carried out according to the method described in Pharmacological Test 2 in WO 94/21599.

[2] = test system: human vascular smooth muscle cells adhering to immobilized human vitronectin; assay: Inhibitory activity against adhesion of human vascular smooth muscle cells to vitronectin; format: cell-based; conditions: 1.5 h; human vitronectin-coated plate, 90 min
Protocol: Inhibitory Activity Against Adhesion of Human Vascular Smooth Muscle Cells to Vitronectin
The adhesion of human vascular smooth muscle cells =+to immobilized human vitronectin was measured in accordance with the method of Liaw et al. (Liaw L, Almeida M, Hart C E, Schwartz S M, and Giachelli C M, Circulation Research, 74 (2), 214-224 (1994)).
A Dulbecco's phosphate buffer (Dulbecco's PBS(−), Nissui Pharmaceutical Co., Ltd.) solution of human plasma-derived vitronectin (CALBIOCHEM) adjusted to a concentration of 4 μg/ml was first added to wells (50 μl/well) of a microplate (Maxisorp, Nunc), and a reaction for immobilization was allowed to proceed at 4° C. overnight. After washing twice with 150 μl of Dulbecco's phosphate buffer, a Dulbecco's phosphate buffer containing 10 mg/ml of bovine serum albumin (SIGMA) was added, followed by blocking at 37° C. for one hr. The assay plate was washed twice with 150 μl of Dulbecco's phosphate buffer.
Separately, human vascular smooth muscle cells cultivated at 37° C. under 5% carbon dioxide in a medium for vascular smooth muscle cells (Clonetics) were separated using a Dulbecco's phosphate buffer containing trypsin-EDTA (GIBCO BRL), washed with Dulbecco's phosphate buffer, and then suspended in a Dulbecco's modified Eagle's basal medium (Nissui Pharmaceutical Co., Ltd.) containing 0.1% bovine serum albumin to a concentration of 5×10^5/ml.
Next, 50 μl of a Dulbecco's modified Eagle's basal medium containing 10 mg/ml of bovine serum albumin with a medicament added thereto was added to the wells of the human vitronectin-coated assay microplate, followed by pre-cultivation under 5% carbon dioxide at 37° C. for 10 min. Thereafter, 50 μl of the medium with human vascular smooth muscle cells suspended therein was added thereto, and the plate was thoroughly stirred. A reaction was allowed to proceed under 5% carbon dioxide at 37° C. for 90 min. The reaction solution containing non-adherent cells were then removed, followed by washing three times with Dulbecco's phosphate buffer. For the adhered cells, 100 μl of a Dulbecco's phosphate buffer containing 4% paraformaldehyde (Wako Pure Chemical Industries, Ltd.) was added, and immobilization was allowed to proceed at room temperature for 10 min. Next, 100 μl of a Dulbecco's phosphate buffer containing 0.5% Toluidine Blue (Croma) and 4% paraformaldehyde was added, and staining was allowed to proceed at room temperature for 5 min, followed by thorough washing with distilled water. The inside of the wells was then air-dried, and a 1% aqueous sodium dodecylsulfate solution was then added to perform cytolysis. The absorbance of the microplate thus obtained was measured at 595 nm. […] The inhibition was calculated by the following equation. IC50 was determined from a primary regression line of the logarithm of each concentration of the test compound and the logarithm of (100−inhibition)/inhibition. [formula]

SMILES	IC50 [1]	IC50 (GP IIb/IIIa)	IC50 [2]
COc1cc(C(=O)NC[C@H](NS(=O)(=O)c2ccccc2)C(=O)O)ccc1N1CCC(NC2=NCCCN2)CC1 [Example 93, (2S)-Benzenesulfonylamino-3-[3-methoxy-4-{4-(1,4,5,6tetrahydropyrimidin-2-ylamino)piperidin-1-yl}-benzoylamino]propionic acid]	≤ 1 nM	≤ 1 nM	≤ 70 nM
O=C(NC[C@H](NS(=O)(=O)c1ccc(O)cc1)C(=O)O)c1ccc(N2CCC(NC3=NCCCN3)CC2)c(F)c1 [Example 75, 3-[3-Fluoro-4-{4-(1,4,5,6-tetrahydropyrimidin-2-ylamino)piperidin-1-yl}benzoyl-amino]-(2S)-{(4-hydroxybenzenesulfonyl)amino}propionic acid]	≤ 1 nM	≤ 1 nM	≤ 70 nM
O=C(NC[C@H](NS(=O)(=O)c1ccccc1)C(=O)O)c1ccc(N2CCC(Nc3nc4ncccc4[nH]3)CC2)cc1 [Example 38, (2S)-Benzenesulfonylamino-3-[4-[4-{(1H-imidazo[4,5-b]pyridin-2-yl)amino}piperidin-1-yl]benzoyl-amino]propionic acid]	≤ 1 nM	≤ 1 nM	–
O=C(NC[C@H](NS(=O)(=O)c1ccc([N+](=O)[O-])cc1)C(=O)O)c1ccc(N2CCC(Nc3nc4ccccc4[nH]3)CC2)cc1 [Example 35, 3-[4-{4-(1H-Benzimidazol-2-ylamino)piperidin-1-yl}benzoylamino]-(2S)-{(4-nitro-benzenesulfonyl)amino}propionic acid]	≤ 1 nM	≤ 1 nM	≤ 70 nM
COc1ccc(S(=O)(=O)N[C@@H](CNC(=O)c2ccc(N3CCC(NC4=NCCCN4)CC3)c(F)c2)C(=O)O)cc1 [Example 73, 3-[3-Fluoro-4-{4-(1,4,5,6-tetrahydropyrimidin-2-ylamino)piperidin-1-yl}benzoyl-amino]-(2S)-{(4-methoxybenzenesulfonyl)amino}propionic acid]	≤ 1 nM	≤ 1 nM	–

The next lines start with the values.

IC50 [1]	IC50 (GP IIb/IIIa)	IC50 [2]	SMILES
≤ 1 nM	≤ 1 nM	–	Nc1ccc(S(=O)(=O)N[C@@H](CNC(=O)c2ccc(N3CCC(Nc4nc5ccccc5[nH]4)CC3)cc2)C(=O)O)cc1 [Example 36, (2S)-(4-Aminobenzenesulfonyl)amino-3-[4-{4-(1H-benzimidazol-2-ylamino)piperidin-1-yl}benzoylamino]-propionic acid]
≤ 1 nM	≤ 1 nM	–	O=C(O)c1ccc(S(=O)(=O)N[C@@H](CNC(=O)c2ccc(N3CCC(N=C4NCCCN4)CC3)c(F)c2)C(=O)O)cc1 [Example 78, (2S)-(4-Carboxybenzenesulfonyl)amino-3-[3-fluoro-4-{4-(1.4.5.6-tetrahydropyrimidin-2-ylamino)-piperidin-1-yl}benzoylamino]propionic acid]
≤ 1 nM	≤ 1 nM	–	Cc1cc(C)c(S(=O)(=O)N[C@@H](CNC(=O)c2ccc(N3CCC(Nc4nc5ccccc5[nH]4)CC3)cc2)C(=O)O)c(C)c1 [Example 31, 3-[4-{4-(1H-Benzimidazol-2-ylamino)piperidin-1-yl}benzoylamino]-(2S)-{(2,4,6-trimethylbenzenesulfonyl)amino}propionic acid]
≤ 1 nM	≤ 1 nM	–	O=C(NC[C@H](NS(=O)(=O)c1ccc(F)cc1)C(=O)O)c1ccc(N2CCC(Nc3nc4ccccc4[nH]3)CC2)cc1 [Example 33, 3-[4-{4-(1H-Benzimidazol-2-ylamino)piperidin-1-yl}benzoylamino]-(2S)-{(4-fluoro-benzenesulfonyl)amino}propionic acid]
≤ 1 nM	≤ 1 nM	–	O=C(NC[C@H](NS(=O)(=O)c1ccccc1)C(=O)O)c1ccc(N2CCC(N=C3NCCCN3)CC2)c(O)c1 [Example 95, (2S)-Benzenesulfonylamino-3-[3-hydroxy-4-{4-(1,4,5,6tetrahydropyrimidin-2-ylamino)piperidin-1-yl}-benzoylamino]propionic acid]
≤ 1 nM	≤ 1 nM	≤ 70 nM	O=C(NC[C@H](NS(=O)(=O)c1ccccc1)C(=O)O)c1ccc(N2CCC(NC3=NCCCN3)CC2)c(F)c1F [Example 57, (2S)-Benzenesulfonylamino-3-[2,3-difluoro-4-{4-(1,4,5,6-tetrahydropyrimidin-2-ylamino)piperidin-1yl}benzoylamino]propionic acid]
